# Patent publication US20040242697A1, “Methods of reducing pests by use of iodoacetic acid, bromoacetic acid, 2-iodoacetamide, or 2-bromoacetamide” (priority 2003, published 2004)
# Columns and labels:
# [1] = test system: Fusarium oxysporum f. sp. lycopersici (isolate FP-7) spores; test: Fusarium tetrazolium (MTT) spore viability assay; type: cell-based; conditions: for concentration giving elimination of viable cells: 24 hr exposure, absorbance at 570 nm; for cell viability result compared with Benlate control: tetrazolium cell viability test
# Experimental: (§1) The suspension was then standardized using a Beckman spectrophotometer (430 nm), which has been calibrated using a CDB blank. […] Suspensions were incubated for 24 hr at 28° C. A 10% stock solution of MTT was then added to each aliquot. The suspensions were allowed to incubate for 4 hr, then pelleted, drained, rinsed, and treated with 95% ethanol. The color change, which correlates with spore viability, was assessed using the Beckman spectrophotometer (570 nm), calibrated with 95% ethanol. Benlate (benomyl) was used as an industry standard control. Each treatment was replicated six times and the assay for each compound was repeated. […] A mycelial plug of (cork bore size #3) Fusarium oxysporum f. sp. lycopersici (isolate FP-7) from a 7-day old culture was placed at the center of the plate and the radial growth of the fungus was measured for 7-10 days. Each treatment was replicated six times and the assay for each compound was repeated. Regression analysis was performed using Sigma Plot 2000.
# (§2) The tetrazolium assay is based on a color change produced with a vital stain on living tissue, i.e. the lower the absorbance, the fewer viable cells.
# [2] = test system: Fusarium oxysporum f. sp. lycopersici (isolate FP-7); test: Fusarium petri plate (PDA) assay, radial growth; type: cell-based; conditions: for fungal growth elimination compared with Benlate control: PDA-based assay
# Experimental: as §1, §2
# [3] = test system: nutsedge (Cyperus esculentus and C. rotundus); test: Field study, weed biomass emerging through the plastic mulch; type: in vivo; conditions: pre-plant, tomato field, Florida
# [4] = test system: native weed population (weeds in the plant hole); test: Field study, weed biomass emerging in the planting hole; type: in vivo; conditions: pre-plant, tomato field, Florida
# [5] = test system: root knot nematode Meloidogyne sp.; test: Field study, root knot nematode root galling on tomato; type: in vivo; conditions: 600 and 800 lb per acre, assessed at harvest; population unevenly distributed
# [6] = test system: purple nutsedge (Cyperus rotundus) tubers; test: Nutsedge greenhouse assay, soil drench on tubers in pots; type: in vivo; conditions: 100 ml soil drench, tarped 7 days, shoots counted 60 days
# Experimental: Herbicide Screen: Each candidate compound was tested on seeds of smooth pigweed (Amaranthus hybridus) and barnyard grass (Echinocloa crus-galli), and on tubers of purple nutsedge (Cyperus rotundus) by exposing seeds or tubers to a specific concentration of the test compound. Seeds were surface sterilized and 20 seeds placed on sterile filter paper (Whatman #5) in a 10-cm petri plate for each of six replicates for each weed species tested. Twenty ml of compound of concentrations ranging from 0 ppm (sterile water control) to 2000 ppm was added to the petri dishes. Plates were stored at 30° C. in an dark incubator. Seed germination was monitored at 24 hr intervals for 30 days. Petri plate bioassays were repeated twice for each compound. Field collected purple nutsedge tubers were placed in 500 g of field soil with soil moisture adjusted to 5%. Five nutsedge tubers were planted in each 10-cm pot at a depth of 2.5 cm. Six replicate pots of each concentration, ranging from 0 ppm (water control) to 2000 ppm, will be treated using 100 ml as a soil drench. Pots were tarped with co-extruded black-on-white polyethylene mulch for 7 days. After tarps were removed, the number of emerged nutsedge shoots was recorded on a weekly basis for 60 days.
Compound,concentration giving elimination of viable cells [1] [ppm],fungal growth elimination compared with Benlate control [2],cell viability result compared with Benlate control [1],further results
"CCCCNC(=O)n1c(NC(=O)OC)nc2ccccc21 [Benlate, benomyl, reference compound]",100,,,
O=C(O)CI [iodoacetic acid],,comparable to the Benalte control,,"concentration at which fungal growth was eliminated ([2]; compound in potato dextrose agar, radial growth measured 7-10 days): ≥ 500 ppm"
"NC(=O)CI [iodoacetamide, 2-iodoacetamide]",100,significantly better than the Benlate control,comparable to a Benlate control,
O=C(O)CBr [bromoacetic acid],,significantly better than the Benlate control,,"control of nutsedge emerging through the plastic versus methyl bromide ([3]; 600 lb per acre): as effective as methyl bromide; control of nutsedge emerging through the plastic (fresh and dry weight) versus methyl bromide ([3]; 800 lb per acre): as effective as methyl bromide; control of weeds in the plant hole versus methyl bromide ([4]; 600 lb per acre): not as effective; control of weeds emerging in the plant hole (fresh and dry weight) versus methyl bromide ([4]; 800 lb per acre): as effective as methyl bromide; root knot nematode control (root galling, scale 0-10) versus untreated check [5]: not statistically significantly different from the untreated check"
"NC(=O)CBr [bromoacetamide, 2-bromoacetamide]",100,significantly better than the Benlate control,comparable to a Benlate control,concentration eliminating germination of nutsedge [6]: ≥ 1000 ppm
